For one series, the system named is red blood cells of mice. Description: Hemolytic toxicity test on erythrocytes. It is filed as cell-based, BALB/c mice. To be noted: concentration 64 μM or above. As to the method: (§1) (1) 1 ml of blood of fresh grass carp and BALB/c mice are collected respectively and stored with heparin sodium for anticoagulation.
(§2) (2) The fresh plasma solutions obtained in step (1) are centrifuged under 1000 g for 5 minutes, the supernatant is discarded, and red blood cells are collected.
(§3) (3) The collected red blood cells are washed 3 times with PBS buffer, centrifuged under 1000 g for 5 minutes each time, and finally resuspended in 5 ml of PBS buffer.
(§4) 50 μl PBS+50 μl red blood cell suspension is used as a negative control, and 50 μl of red blood cell suspension+50 μl of 0.2% Triton X-100 is used as a positive control.
(§5) (6) After 1 hour, the 96-well plate is taken out, and centrifuged under 1000 g for 5 minutes at 4° C.
(§6) (7) The supernatant of the above-mentioned centrifuged solutions is taken and placed on a clean 96-well plate again, and then absorbance is measured at 570 nm with a microplate reader.
(§7) (8) The average values of all the groups are compared and analyzed. The test is repeated three times. Calculation formula: Hemolysis rate=(absorbance of experimental group−absorbance of negative group)/(absorbance of positive group−absorbance of negative group)×100%. (9)

In another series the test system is grass carp CIK cells. Description: Cytotoxicity test (MTT method). It is filed as cell-based. The conditions noted are these: final concentration 128 μM, 24 hours. An excerpt: (§8) Cytotoxicity test of the interferon-derived polypeptide on human HEK293T cells and grass carp CIK cells:
(§9) The MTT method, also known as the MTT colorimetric method, is a method for measuring cell proliferation and cell survival rate. The detection principle is that the […] in the living cell mitochondria can reduce the exogenous MTT to a water-insoluble blue-purple crystalline Formazan which deposits in the cells, while the dead cells have no such function. DMSO can dissolve Formazan in the cells, and through measuring its absorbance by using an enzyme-linked immunosorbent detector at a wavelength of 492 nm, the number of living cells can be reflected indirectly. Within a certain range of the number of cells, the amount of the formed MTT crystal is proportional to the number of cells.
(§10) (1) Cell preparation: A human HEK293T cell line and grass carp CIK cell line preserved in liquid nitrogen are resuscitated and cultured in DMEM containing 10% fetal bovine serum under the conditions of 37° C./28° C., 5% CO2, and saturated humidity. The culture solution is changed every other day, and the cell passage is carried out by trypsinization. When 80%-90% of the bottom of the flask is covered with cells, the cells are washed twice with PBS, 2 ml of 0.25% trypsin digestive juice is added, and the degree of digestion is observed under an inverted microscope; when most of the cells are rounded and the cells are in loose connection, it indicates moderate digestion and this process is about 3 minutes; the digestion is terminated by adding a DMEM or MEM medium containing fetal bovine serum, the digestive juice is poured off, and about 3 ml of the cell culture solution is added to thoroughly blow the cells to form a single cell suspension. Finally, the diluted cell suspension is added to a 96-well plate, and 50 μl of the diluted cell suspension is added to each well at a concentration of about 1×10^4 cells/well.
(§11) The cell wells without the interferon-derived polypeptide are used as positive control, and the cell well with the interferon-derived polypeptide but without the cells are used as negative control, and the culture is further continued for 24 hours.
(§12) (3) Reading: After culture for a certain period of time, […] (5 mg/ml) of MTT is directly added to each well, and after culture for 4 hours, 150 μl of DMSO is added and vibration is carried out for 10 minutes to dissolve the crystal, and the absorbance is then measured at 492 nm by the enzyme-linked immunosorbent detector. The test is repeated three times.
(§13) Survival rate=(absorbance of experimental group−absorbance of negative group)/(absorbance of positive group−absorbance of negative group)×100%. (5)
On the technique in general: Formazan colour is commonly taken as a measure of viable cells.

Series [1] deals with red blood cells of grass carp. Kind of series: Hemolytic toxicity test on erythrocytes. It counts as cell-based. To be noted: concentration 64 μM or above. The procedure: as §1, §2, §3, §4, §5, §6, §7
For the next series, the system named is human HEK293T cells. Kind of series: Cytotoxicity test (MTT method). To be noted: 24 h, 128 µM. It counts as cell-based.
Description: as §8, §9, §10, §11, §12, §13

Series [2] is described as follows: Cytotoxicity test (MTT method). It counts as cell-based.
Description: as §8, §9, §10, §11, §12, §13

Series [3] in a line: Toxicity of the drug to mice without bacterial infection (safe dose). The conditions noted are these: intraperitoneal injection, no bacterial infection. It is filed as in vivo. The procedure: First, an appropriate drug treatment dose is selected through pre-tests, and an appropriate drug dose concentration is found through 3-5 different drug dose concentration groups. In addition, the toxicity of the drug to mice should be tested so as to preliminarily evaluate the safety of the drug, that is, in the absence of bacterial infection, only the mice are intraperitoneally injected with the interferon-derived polypeptide drug, and the safe dose range is <200 μg/head.

The mark [4] stands for this setting: human, HEK293T cells, Survival rate of cells.

The record followed here is patent publication US10577404B2, “Polypeptide derivatives from grass carp interferon and application thereof” (priority 2018, dated 2020).

Where two headings read alike, the source gives them in different places. Ends that are not written are not given here. Some results are limits rather than exact numbers.

On to `CC[C@H](C)[C@H](NC(=O)[C@H](CCCCN)NC(=O)[C@H](CCC(=O)O)NC(=O)[C@H](CCCCN)NC(=O)[C@H](CO)NC(=O)[C@H](CCCCN)NC(=O)[C@H](CCCNC(=N)N)NC(=O)[C@H](Cc1ccccc1)NC(=O)[C@H](Cc1ccccc1)NC(=O)[C@H](CC(=O)O)NC(=O)CNC(=O)[C@H](CC(C)C)NC(=O)[C@@H](N)CC(C)C)C(=O)NCC(=O)N[C@@H](CCCCN)C(=O)N[C@@H](CCC(=O)O)C(=O)N[C@@H](Cc1ccccc1)C(=O)N[C@@H](CCCCN)C(=O)N[C@@H](CCCNC(=N)N)C(=O)N[C@H](C(=O)N[C@H](C(=O)N[C@@H](CCC(N)=O)C(=O)N[C@@H](CCCNC(=N)N)C(=O)N[C@H](C(=O)N[C@@H](CCCCN)C(=O)N[C@@H](CC(=O)O)C(=O)N[C@@H](Cc1ccccc1)C(=O)N[C@@H](CC(C)C)C(=O)N[C@@H](CCCNC(=N)N)C(=O)N[C@@H](CC(N)=O)C(=O)N[C@@H](CC(C)C)C(=O)N[C@H](C(=O)N1CCC[C@H]1C(=O)N[C@@H](CCCNC(=N)N)C(=O)N[C@H](C(=O)N[C@@H](CCC(=O)O)C(=O)N[C@@H](CO)C(=O)O)[C@@H](C)O)C(C)C)[C@@H](C)CC)C(C)C)[C@@H](C)CC` [LL37], for which the “hemolytic toxicity (in words)” value (in the series with red blood cells of mice; in series [1]) was “obvious” each time. The “Survival rate of cells” value with grass carp CIK cells is 15%.
For the compound “SYEKKINRHFKILKKNLKKK [Interferon-derived polypeptide]”, the “Survival rate of cells” value in the series on human HEK293T cells was determined as 83%; with grass carp CIK cells it was 81%. The viability at 24 h, 8 µM in series [2] (CIK cells, grass carp CIK, final concentration 8 μM, read-out: Survival rate of cells) was 95.4%; in series [2] (setting [4]) it was 98.3%. Further, the viability at 24 h, 16 µM in series [2] (CIK cells, grass carp CIK, final concentration 16 μM, read-out: Survival rate of cells) is 96.7%; in series [2] (setting [4]), 97.2%. In addition, the viability at 24 h, 32 µM turned out to be 95.2% in series [2] (CIK cells, grass carp CIK, final concentration 32 μM, read-out: Survival rate of cells) and 93% in series [2] (setting [4]). The viability at 24 h, 64 µM in series [2] (CIK cells, grass carp CIK, final concentration 64 μM, read-out: Survival rate of cells) was 87%; in series [2] (setting [4]), 89%. Moreover, the viability at 24 h, 128 µM in series [2] (CIK cells, grass carp CIK, final concentration 128 μM, read-out: Survival rate of cells) is more than 80%; in series [2] (setting [4]) it was more than 80%. In series [3], the safe dose range was less than 200 μg/head.
